# In patent US9169260B2 (MERCK SHARP & DOHME CORP., priority 2011, dated 2015):
# Molecular target: GST tagged IRAK-4 (Homo sapiens (Human), UniProt Q9NWZ3)
# Experiment: IRAK-4 Kinase Assay (IMAP fluorescence polarization)
# Format: biochemical
# Conditions: 100 μM ATP, 30 minutes at 25° C.
# Outline: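 Activity was read by IMAP fluorescence polarization, where phosphopeptide binding to M(III) nanoparticles raises FP. The 30-minute, 25° C reaction used 100 μM ATP, 100 nM RP7030 substrate and 0.5 nM GST-IRAK-4 in pH 7.2 Tris buffer with MgCl2, DTT and Tween 20.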
# GST tagged IRAK-4, sequence (Q9NWZ3 whole entry): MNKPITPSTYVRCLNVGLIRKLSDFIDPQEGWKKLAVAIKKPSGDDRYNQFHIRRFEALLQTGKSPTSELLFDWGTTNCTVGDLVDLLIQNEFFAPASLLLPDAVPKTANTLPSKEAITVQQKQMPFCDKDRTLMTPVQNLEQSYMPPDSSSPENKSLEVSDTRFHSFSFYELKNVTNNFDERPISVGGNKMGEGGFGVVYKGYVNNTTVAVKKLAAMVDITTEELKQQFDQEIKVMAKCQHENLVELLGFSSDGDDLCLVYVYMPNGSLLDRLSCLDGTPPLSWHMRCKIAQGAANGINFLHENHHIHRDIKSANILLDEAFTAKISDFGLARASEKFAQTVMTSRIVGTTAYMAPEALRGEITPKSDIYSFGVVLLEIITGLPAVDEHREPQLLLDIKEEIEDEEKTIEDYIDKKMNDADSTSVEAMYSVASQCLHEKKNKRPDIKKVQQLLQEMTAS
SMILES,IC50 (μM) [µM],IC50 [µM]
"CS(=O)(=O)N1CCC(c2cc(NC(=O)c3cnn4cccnc34)n(-c3nccn3S(C)(=O)=O)n2)CC1 [Example 188, N-(1-(1-(methylsulfonyl)-1H-imidazol-2-yl)-3-(1-(methylsulfonyl)piperidin-4-yl)-1H-pyrazol-5-yl)pyrazolo[1,5-a]pyrimidine-3-carboxamide]",> 1,
"Cc1ccc(-n2nc(C3CCN(S(C)(=O)=O)CC3)cc2NC(=O)c2cnn3cccnc23)nc1 [Example 153, N-(1-(5-methylpyridin-2-yl)-3-(1-(methylsulfonyl)piperidin-4-yl)-1H-pyrazol-5-yl)pyrazolo[1,5-a]pyrimidine-3-carboxamide]",,< 0.1
"COc1ccc(-n2nc(C3CCNCC3)cc2NC(=O)c2cnn3cccnc23)c(F)c1 [Example 61, N-(1-(2-fluoro-4-methoxyphenyl)-3-(piperidin-4-yl)-1H-pyrazol-5-yl)pyrazolo[1,5-a]pyrimidine-3-carboxamide]",,< 0.1
"Cc1ccc(-n2nc(C3CCN(S(=O)(=O)C(C)C)CC3)cc2NC(=O)c2cnn3cccnc23)cc1 [Example 368, N-[3-{1-[(1-methylethyl)sulfonyl]piperidin-4-yl}-1-(4-methylphenyl)-1H-pyrazol-5-yl]pyrazolo[1,5-a]pyrimidine-3-carboxamide]",,< 0.1
"Cc1ccc(-n2nc(C3CCN(S(=O)(=O)Cc4noc5ccccc45)CC3)cc2NC(=O)c2cnn3cccnc23)cc1 [Example 356, N-[3-{1-[(1,2-benzisoxazol-3-ylmethyl)sulfonyl]piperidin-4-yl}-1-(4-methylphenyl)-1H-pyrazol-5-yl]pyrazolo[1,5-a]pyrimidine-3-carboxamide]",< 1,
"Cc1ccc(-n2nc(C3CCNC(=O)CC3)cc2NC(=O)c2cnn3cccnc23)cc1 (centres unmarked) [Example 4, N-(3-(7-oxoazepan-4-yl)-1-(p-tolyl)-1H-pyrazol-5-yl)pyrazolo[1,5-a]pyrimidine-3-carboxamide]",< 1,
"Cc1ccc(-n2nc(C3CCC(C(N)=O)CC3)cc2NC(=O)c2cnn3cccnc23)cc1 (centres unmarked) [Example 95, N-(3-(4-carbamoylcyclohexyl)-1-(p-tolyl)-1H-pyrazol-5-yl)pyrazolo[1,5-a]pyrimidine-3-carboxamide]",< 1,
"Cc1ccc(-n2nc(-c3ccc(S(C)(=O)=O)cc3)cc2NC(=O)c2cnn3cccnc23)cc1 [Example 134, N-(3-(4-(methylsulfonyl)phenyl)-1-(p-tolyl)-1H-pyrazol-5-yl)pyrazolo[1,5-a]pyrimidine-3-carboxamide]",,< 0.1
"COCC(C)N1CCC(c2cc(NC(=O)c3cnn4cccnc34)n(-c3ccc(C)cc3)n2)CC1 (centres unmarked) [Example 211, N-(3-(1-(1-methoxypropan-2-yl)piperidin-4-yl)-1-(p-tolyl)-1H-pyrazol-5-yl)pyrazolo[1,5-a]pyrimidine-3-carboxamide]",,< 0.1
"Cc1ccc(-n2nc(C3CN(S(C)(=O)=O)C3)cc2NC(=O)c2cnn3cccnc23)cc1 [Example 83, N-(3-(1-(methylsulfonyl)azetidin-3-yl)-1-(p-tolyl)-1H-pyrazol-5-yl)pyrazolo[1,5-a]pyrimidine-3-carboxamide]",< 1,
"Cc1ccc(-n2nc(C3CCC(=NO)CC3)cc2NC(=O)c2cnn3cccnc23)cc1 (centres unmarked) [Example 2, N-(3-(4-(hydroxyimino)cyclohexyl)-1-(p-tolyl)-1H-pyrazol-5-yl)pyrazolo[1,5-a]pyrimidine-3-carboxamide]",< 1,
